The source of these data is ChEMBL document CHEMBL1821589, “Synthesis and structure-activity relationship of 1- and 2-substituted-1,2,3-triazole letrozole-based analogues as aromatase inhibitors” (Eur J Med Chem, 2011).

Calls of active or inactive are those of the source. No cut-off for these calls is given here.

The target in one data set is T1, Aromatase (Homo sapiens, UniProt P11511).
T1 sequence (P11511 whole entry): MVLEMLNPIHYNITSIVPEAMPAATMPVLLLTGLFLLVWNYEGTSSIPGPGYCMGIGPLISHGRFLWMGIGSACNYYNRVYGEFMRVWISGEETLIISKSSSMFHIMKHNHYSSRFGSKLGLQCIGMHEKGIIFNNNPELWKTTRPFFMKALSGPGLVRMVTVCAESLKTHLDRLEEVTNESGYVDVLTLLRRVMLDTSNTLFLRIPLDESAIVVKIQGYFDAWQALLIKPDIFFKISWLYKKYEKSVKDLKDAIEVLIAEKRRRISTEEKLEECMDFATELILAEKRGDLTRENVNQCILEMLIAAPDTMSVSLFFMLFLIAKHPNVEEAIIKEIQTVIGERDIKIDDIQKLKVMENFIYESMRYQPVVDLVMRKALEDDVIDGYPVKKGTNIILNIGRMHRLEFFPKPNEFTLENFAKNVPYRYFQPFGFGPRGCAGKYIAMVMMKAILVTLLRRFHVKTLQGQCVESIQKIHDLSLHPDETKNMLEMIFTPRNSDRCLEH
The data set can be described thus: Inhibition of aromatase using 7-methoxy-4-trifluoromethyl coumarin as substrate after 30 mins by fluorescence-based colorimetric analysis.
Conditions: not given
As to `N#Cc1ccc(C(c2ccc(C#N)cc2)n2nccn2)cc1`, the IC50 came to 80 µM.

`Cc1ccc(OCc2cn(Cc3ccccc3)nn2)cc1`: inhibition was half-maximal at 2.27 µM (IC50).

`N#Cc1ccc(Cn2cc(-c3ccccc3)nn2)cc1` showed an IC50 of 3.38 µM.

Regarding `N#Cc1ccc(Cn2cc(COc3ccc(-c4ccccc4)cc3)nn2)cc1`, half-maximal inhibition (IC50) required 11.6 µM.

As to `CCCc1cn(C(c2ccccc2)c2ccccc2)nn1`, the IC50 came to 11 µM.

As to `Cc1ccc(OCc2cn(C(c3ccccc3)c3ccccc3)nn2)cc1`, the IC50 worked out at 26.8 µM.

Compound `c1ccc(C(c2ccccc2)n2ccnn2)cc1` showed an IC50 of 4.58 µM.

Turning to `CCCCCCc1cn(Cc2ccccc2)nn1`, the IC50 came out at 7.47 µM.

As to `COc1ccc(OCc2cn(C(c3ccccc3)c3ccccc3)nn2)cc1`, the IC50 is 15.2 µM.

`N#Cc1ccc(C(c2ccc(C#N)cc2)n2cc(-c3ccccc3)nn2)cc1` returned an IC50 of 10.3 µM.

With `c1ccc(Cn2nccn2)cc1`, the IC50 came to 16.3 µM.

With `N#Cc1ccc(Cn2ccnn2)cc1`, the IC50 was 0.1 µM.

Compound `O=[N+]([O-])c1ccc(OCc2cn(C(c3ccccc3)c3ccccc3)nn2)cc1` registered an IC50 of 11.6 µM.

`N#Cc1ccc(OCc2cn(C(c3ccccc3)c3ccccc3)nn2)cc1` yielded a concentration for half-maximal inhibition (IC50) of 16.4 µM.

With `c1ccc(C(c2ccccc2)n2cc(C3CCCCC3)nn2)cc1`, the 50% inhibitory concentration (IC50) was determined as 13.7 µM.

`Clc1ccc(OCc2cn(Cc3ccccc3)nn2)cc1` had an IC50 of 5.04 µM.

Turning to `c1ccc(-c2cn(C(c3ccccc3)c3ccccc3)nn2)cc1`, the IC50 came to 12.9 µM.

`c1ccc(Cn2ccnc2)cc1` [BENZYLIMIDAZOLE]: the IC50 came to 0.15 µM.

Consider `N#Cc1ccc(OCc2cn(Cc3ccccc3)nn2)cc1`, for which 1.36 µM corresponded to half-maximal inhibition (IC50).

The compound `CCCCCCCCCCc1cn(Cc2ccccc2)nn1` registered an IC50 of 6.4 µM.

Turning to `N#Cc1ccc(C(c2ccc(C#N)cc2)n2cc(C3CCCCC3)nn2)cc1`, the midpoint of inhibition, the IC50, lay at 19.3 µM.

`N#Cc1ccc(Cn2cncn2)cc1` yielded an IC50 of 0.15 µM.

`CCCCCCCc1cn(C(c2ccc(C#N)cc2)c2ccc(C#N)cc2)nn1`: the IC50 stood at 10.6 µM.

As for `N#Cc1ccc(C(c2ccc(C#N)cc2)n2cc(COc3ccc(Cl)cc3)nn2)cc1`, the IC50 is 16.1 µM.

For `N#Cc1ccc(C(c2ccc(C#N)cc2)n2cc(COc3ccccc3)nn2)cc1`, inhibition was half-maximal at 11 µM (IC50).

As to `c1ccc(Cn2cncn2)cc1`, the IC50 came to 4.11 µM.

In turn, `COc1ccc(OCc2cn(C(c3ccc(C#N)cc3)c3ccc(C#N)cc3)nn2)cc1` showed an IC50 of 12.2 µM.

`N#Cc1ccc(Cn2cc(COc3ccccc3)nn2)cc1` came in with an IC50 of 6.09 µM.

The compound `CCCCCCCc1cn(Cc2ccc(C#N)cc2)nn1` had an IC50 of 3.07 µM.

`N#Cc1ccc(Cn2cc(COc3ccc(Cl)cc3)nn2)cc1` displayed an IC50 of 3.91 µM.

On to `c1ccc(OCc2cn(C(c3ccccc3)c3ccccc3)nn2)cc1`, for which the IC50 turned out to be 31.3 µM.

Regarding `CCCCCCCCCCc1cn(C(c2ccc(C#N)cc2)c2ccc(C#N)cc2)nn1`, the IC50 is 16 µM.

As to `c1ccc(-c2ccc(OCc3cn(C(c4ccccc4)c4ccccc4)nn3)cc2)cc1`, the IC50 came out at 15.5 µM.

The compound `c1ccc(Cn2cc(-c3ccccc3)nn2)cc1` had an IC50 of 9.77 µM.

With `Cc1ccc(OCc2cn(Cc3ccc(C#N)cc3)nn2)cc1`, the IC50 turned out to be 4.17 µM.

On to `N#Cc1ccc(Cn2cc(COc3ccc(C#N)cc3)nn2)cc1`, for which the IC50 worked out at 9.16 µM.

With `CCCc1cn(Cc2ccc(C#N)cc2)nn1`, half-maximal inhibition (IC50) was put at 4.37 µM.

`CCCCCCCCCCc1cn(Cc2ccc(C#N)cc2)nn1` registered an IC50 of 7.88 µM.

Compound `N#Cc1ccc(Cn2nccn2)cc1` yielded an IC50 of 12.2 µM.

`N#Cc1ccc(Cn2cc(C3CCCCC3)nn2)cc1` showed an IC50 of 10.7 µM.

Consider `N#Cc1ccc(C(c2ccc(C#N)cc2)n2cc(COc3ccc([N+](=O)[O-])cc3)nn2)cc1`, for which the IC50 was found to be 7.73 µM.

In the case of `CCCCCCc1cn(Cc2ccc(C#N)cc2)nn1`, half-maximal inhibition (IC50) was put at 5.26 µM.

With `N#Cc1ccc(OCc2cn(C(c3ccc(C#N)cc3)c3ccc(C#N)cc3)nn2)cc1`, the IC50 is 4.64 µM.

`O=[N+]([O-])c1ccc(OCc2cn(Cc3ccccc3)nn2)cc1` had an IC50 of 2.78 µM.

On to `COc1ccc(OCc2cn(Cc3ccccc3)nn2)cc1`, for which the midpoint of inhibition, the IC50, lay at 17.3 µM.

Consider `CCCCCCc1cn(C(c2ccc(C#N)cc2)c2ccc(C#N)cc2)nn1`, for which the IC50 was 5.07 µM.

Consider `c1ccc(Cn2cc(COc3ccc(-c4ccccc4)cc3)nn2)cc1`, for which the IC50 is 10.7 µM.

`c1ccc(C(c2ccccc2)n2cncn2)cc1` showed an IC50 of 1.1 µM.

In turn, `c1ccc(C(c2ccccc2)n2nccn2)cc1` showed an IC50 of 12 µM.

`N#Cc1ccc(Cn2cc(COc3ccc([N+](=O)[O-])cc3)nn2)cc1` returned an IC50 of 5.62 µM.

On to `CCCCCCc1cn(C(c2ccccc2)c2ccccc2)nn1`, for which the IC50 stood at 14.8 µM.

Take `CCCCCCCCCCc1cn(C(c2ccccc2)c2ccccc2)nn1`: the IC50 is 13.5 µM.

With `CCCCCCCc1cn(Cc2ccccc2)nn1`, the midpoint of inhibition, the IC50, lay at 9.53 µM.

The compound `c1ccc(Cn2cc(COc3ccccc3)nn2)cc1` yielded an IC50 of 10.6 µM.

With `COc1ccc(OCc2cn(Cc3ccc(C#N)cc3)nn2)cc1`, inhibition was half-maximal at 2.34 µM (IC50).

`CCCc1cn(Cc2ccccc2)nn1` yielded an IC50 of 12.6 µM.

With `c1ccc(Cn2ccnn2)cc1`, the IC50 turned out to be 11.9 µM.

With `c1ccc(Cn2cc(C3CCCCC3)nn2)cc1`, half-maximal inhibition (IC50) required 7.98 µM.

On to `Cc1ccc(OCc2cn(C(c3ccc(C#N)cc3)c3ccc(C#N)cc3)nn2)cc1`, for which the IC50 came out at 11 µM.

`CCCCCCCc1cn(C(c2ccccc2)c2ccccc2)nn1` yielded an IC50 of 19.4 µM.

Compound `CCCc1cn(C(c2ccc(C#N)cc2)c2ccc(C#N)cc2)nn1` displayed an IC50 of 4.7 µM.

Compound `N#Cc1ccc(C(c2ccc(C#N)cc2)n2cc(COc3ccc(-c4ccccc4)cc3)nn2)cc1` displayed an IC50 of 13.3 µM.

`Clc1ccc(OCc2cn(C(c3ccccc3)c3ccccc3)nn2)cc1` had an IC50 of 13.4 µM.

The next data set has as its system NCI-H295R. The data set can be described thus: Antiproliferative activity against human NCI-H295R cells assessed as [3H]thymidine incorporation at 10 nM after 24 hrs by scintillation counting. The data set is classed as functional. Conditions: read-out: GI.
For `N#Cc1ccc(C(c2ccc(C#N)cc2)n2cncn2)cc1` [LETROZOLE], the inhibition of growth at 0.01 µM amounted to 10%.

A further data set deals with NCI-H295R. The data set can be described thus: Antiproliferative activity against human NCI-H295R cells at 10 nM after 24 hrs by Cell titer blue assay. It is filed as functional.
Conditions: not given
Consider `N#Cc1ccc(OCc2cn(Cc3ccccc3)nn2)cc1`, for which the “growth inhibition (GI)” value was “inactive”.

The data set is the same for the next values; noted with them: read-out: GI.
In the case of `N#Cc1ccc(OCc2cn(C(c3ccc(C#N)cc3)c3ccc(C#N)cc3)nn2)cc1`, the inhibition of growth at 0.01 µM is 76%.

Another data set relates to NCI-H295R. The data set can be described thus: Antiproliferative activity against human NCI-H295R cells at 10 nM after 72 hrs by Cell titer blue assay. It is filed as functional.
Conditions: not given
As to `N#Cc1ccc(OCc2cn(Cc3ccccc3)nn2)cc1`, the “growth inhibition (GI)” value is “inactive”.

Still in this data set, the particulars now being: read-out: GI.
Consider `N#Cc1ccc(OCc2cn(C(c3ccc(C#N)cc3)c3ccc(C#N)cc3)nn2)cc1`, for which the inhibition of growth at 0.01 µM came to 99%.

The subject of another data set is NCI-H295R. Nature of the data set: Antiproliferative activity against human NCI-H295R cells assessed as cell viability at 10 nM after 24 to 72 hrs by Cell titer blue assay. The data set is classed as functional. The conditions noted are these: read-out: GI.
`N#Cc1ccc(C(c2ccc(C#N)cc2)n2ccnc2)cc1`: the inhibition of growth at 0.01 µM came out at 40%.

For another data set, the target named is T1, Aromatase. The data set can be described thus: Ratio of letrozole IC50 to compound IC50 for aromatase.
Conditions: not given
For `N#Cc1ccc(Cn2ccnn2)cc1`, the “Ratio IC50” value is 12.5.
